In ChEMBL document CHEMBL1145136, “Molecular determinants of steroid inhibition for the mouse constitutive androstane receptor” (J Med Chem, 2003):

Experiments:
[1] = biological target: T1, mouse constitutive androstane receptor (mCAR, NR1I3) (Mus musculus, UniProt O35627); test: Inhibition of mouse constitutive androstane receptor (mCAR) activity at 10 uM was determined as percent remaining activity; details: read-out: Remaining activity
T1 sequence (O35627 whole entry): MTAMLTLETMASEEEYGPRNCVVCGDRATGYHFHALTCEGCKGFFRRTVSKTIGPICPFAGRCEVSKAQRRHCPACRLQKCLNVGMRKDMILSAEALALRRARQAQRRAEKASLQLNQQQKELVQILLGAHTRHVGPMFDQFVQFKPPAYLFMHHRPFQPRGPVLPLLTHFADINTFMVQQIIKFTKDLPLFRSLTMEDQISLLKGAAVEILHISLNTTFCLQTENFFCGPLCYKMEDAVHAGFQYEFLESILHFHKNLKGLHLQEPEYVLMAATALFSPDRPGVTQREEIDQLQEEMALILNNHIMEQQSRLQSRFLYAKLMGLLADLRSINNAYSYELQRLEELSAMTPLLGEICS

[2] = biological target: T2, Nuclear receptor subfamily 1 group I member 3 (Mus musculus, UniProt O35627); test: Inhibitory concentration against mammalian m-constitutive androstane receptor (mCAR) activity
T2 sequence (O35627 whole entry): T1 sequence (O35627 whole entry)

[3] = biological target: T2, Nuclear receptor subfamily 1 group I member 3; test: Inhibitory concentration against mouse constitutive androstane receptor (mCAR) activity was determined as pIC50

C[C@]12CCC(=O)C=C1CCC1[C@@H]2[C@@H](O)C[C@@]2(C)[C@H]1CC[C@]2(O)C(=O)CO (single isomer, unassigned) [HYDROCORTISONE]
activity at 10 µM [1]: 68%

C[C@]12CC[C@@H](O)C[C@@H]1CC[C@@H]1[C@@H]2CC[C@]2(C)C=CC[C@@H]12 [ANDROSTENOL]
IC50 [2]: 0.25 µM

CC12CCC3C(CC[C@H]4CC(=O)C=CC34C)C1CCC2=O (stereo partly specified)
activity at 10 µM [1]: 90%

CC12C=CCC1C1CCC3=CC(=O)CCC3(C)C1CC2 (stereo unspecified)
IC50 [3]: 0.794 µM | activity at 10 µM [1]: 7%

CC12C=CCC1C1CC[C@H]3CC(=O)CCC3(C)C1CC2 (stereo partly specified)
activity at 10 µM [1]: 5%

CC(=O)[C@H]1CC[C@H]2[C@@H]3CC=C4C[C@@H](O)CC[C@]4(C)[C@H]3CC[C@]12C [PREGNENOLONE]
activity at 10 µM [1]: 95%

CC12C=CCC1C1CC[C@H]3C[C@@H](O)CCC3(C)C1CC2 (stereo partly specified)
activity at 10 µM [1]: 28%

C[C@@]12CCC[C@H]1[C@@H]1CC[C@H]3C[C@H](O)CC[C@]3(C)[C@H]1CC2
activity at 10 µM [1]: 4%

C[C@]12CCC(=O)C=C1CCC1[C@@H]2C(=O)C[C@@]2(C)[C@H]1CC[C@]2(O)C(=O)CO (single isomer, unassigned) [CORTISONE]
activity at 10 µM [1]: 80%

CC(=O)[C@H]1CC[C@H]2[C@@H]3CC[C@@H]4CC(=O)CC[C@]4(C)[C@H]3CC[C@]12C
activity at 10 µM [1]: 20%

CC12CCC3C(CCC4=CC(=O)CCC43C)C1C[C@@H](O)C2=O (stereo partly specified)
activity at 10 µM [1]: 62%

CC12CCC(=O)C[C@@H]1CC[C@@H]1[C@@H]2CCC2(C)[C@@H](O)CC[C@@H]12 (stereo partly specified)
activity at 10 µM [1]: 53%

CC12CCC3C(CC[C@H]4CC=CCC34C)C1CCC2=O (stereo partly specified)
activity at 10 µM [1]: 42%

C[C@]12C[C@H](O)[C@H]3[C@@H](CCC4=CC(=O)CC[C@@]43C)[C@@H]1CC[C@@H]2C(=O)CO [CORTICOSTERONE]
activity at 10 µM [1]: 80%

C[C@@]12CCC[C@H]1[C@@H]1CC[C@@H]3C[C@H](O)CC[C@]3(C)[C@H]1CC2
activity at 10 µM [1]: 4%

CC12CC[C@@H]3C4CCC(=O)C[C@@H]4CC[C@H]3[C@@H]1CCC2=O (stereo partly specified)
activity at 10 µM [1]: 80%

C[C@@H]1C[C@H]2[C@@H]3CCC4=CC(=O)C=C[C@]4(C)[C@@]3(F)[C@@H](O)C[C@]2(C)[C@@]1(O)C(=O)CO [DEXAMETHASONE]
activity at 10 µM [1]: 75%

CC12CCC(=O)C=C1CCC1C2CCC2(C)C1CC[C@@H]2C(=O)O (stereo partly specified)
IC50 [3]: 39.8 µM | activity at 10 µM [1]: 81%

CC(=O)[C@H]1CC[C@H]2[C@@H]3CC[C@H]4C[C@H](O)CC[C@]4(C)[C@H]3CC[C@]12C [BREXANOLONE]
activity at 10 µM [1]: 19%

C[C@]12C=CC(=O)C=C1CC[C@@H]1[C@@H]2CC[C@]2(C)C(=O)CC[C@@H]12 [ANDROSTENEDONE]
activity at 10 µM [1]: 89%

CC12CC[C@H]3[C@@H](CC[C@@H]4CCCCC43C)[C@@H]1CCC2=O (stereo partly specified)
activity at 10 µM [1]: 45%

C[C@]12CCC(=O)C[C@@H]1CC[C@@H]1[C@@H]2CC[C@]2(C)[C@@H](O)CC[C@@H]12 [STANOLONE]
activity at 10 µM [1]: 69%

CC12CCC3C(CCC4=C[C@H](O)CCC43C)C1CCC2=O (stereo partly specified)
activity at 10 µM [1]: 66%

CC12CCC3C(C[C@@H](O)C4=CC(=O)CCC43C)C1CCC2=O (stereo partly specified)
activity at 10 µM [1]: 89%

CCC1CC[C@H]2[C@@H]3CC[C@H]4CC(=O)CCC4(C)[C@H]3CCC12C (stereo partly specified)
activity at 10 µM [1]: 52%

CC12CCC3C(C[C@H](O)C4=CC(=O)CCC43C)C1CCC2=O (stereo partly specified)
activity at 10 µM [1]: 81%

CC12CC[C@H]3[C@@H](CC[C@H]4CC(=O)CCC43C)[C@@H]1CCC2=O (stereo partly specified)
IC50 [3]: 5.01 µM | activity at 10 µM [1]: 34%

CC12CC[C@@H](O)C[C@@H]1CC[C@@H]1[C@@H]2CCC2(C)[C@@H](O)CC[C@@H]12 (stereo partly specified)
activity at 10 µM [1]: 63%

CC12CCC[C@H]1[C@@H]1CC[C@H]3CC(=O)CCC3(C)[C@H]1CC2 (stereo partly specified)
activity at 10 µM [1]: 12%

C[C@]12CC[C@H]3[C@@H](CCC4=CC(=O)CC[C@@]43C)[C@@H]1CC[C@@H]2C(=O)CO [DESOXYCORTICOSTERONE]
activity at 10 µM [1]: 58%

C[C@]12CCC(=O)C=C1CC[C@@H]1[C@@H]2CC[C@]2(C)C(=O)CC[C@@H]12 [ANDROSTENEDIONE]
activity at 10 µM [1]: 56%

C[C@]12CCC(=O)C(O)=C1CC[C@@H]1[C@@H]2CC[C@]2(C)C(=O)CC[C@@H]12 [FORMESTANE]
activity at 10 µM [1]: 53%

C[C@]12CC[C@H]3[C@@H](CCC4=CC(=O)CC[C@@]43C)[C@@H]1CC[C@H]2O [EPITESTOSTERONE]
activity at 10 µM [1]: 73%

CC12CCC3C(CCC4=CC(=O)[C@H](O)CC43C)C1CCC2=O (stereo partly specified)
activity at 10 µM [1]: 41%

C[C@@]12CCC[C@H]1[C@@H]1CCc3cc(O)ccc3[C@H]1CC2
activity at 10 µM [1]: 56%

C[C@]12CCC(=O)C=C1CC[C@@H]1[C@@H]2[C@@H](O)C[C@]2(C)C(=O)CC[C@@H]12
activity at 10 µM [1]: 83%

CC12CC[C@@H]3C4CC[C@@H](O)C[C@@H]4CC[C@H]3[C@@H]1CCC2=O (stereo partly specified)
activity at 10 µM [1]: 91%

CC12CCC3C(C1CCC2=O)[C@H](O)CC1=CC(=O)CCC13C (stereo partly specified)
activity at 10 µM [1]: 97%

C[C@]12CC[C@H](O)CC1=CC[C@@H]1[C@@H]2CC[C@]2(C)C(=O)CC[C@@H]12 [PRASTERONE]
activity at 10 µM [1]: 71%

CC(=O)[C@H]1CC[C@H]2[C@@H]3CC[C@H]4CC(=O)CC[C@]4(C)[C@H]3CC[C@]12C
activity at 10 µM [1]: 73%

CC12C=CCC1C1CC[C@H]3C[C@H](O)CCC3(C)C1CC2 (stereo partly specified)
activity at 10 µM [1]: 4%

C[C@]12CC[C@H]3[C@@H](CCC4=CC(=O)CC[C@@]43C)[C@@H]1CC[C@@H]2O [TESTOSTERONE]
activity at 10 µM [1]: 78% | IC50 [2]: 30 µM
